Reference: US7943657B2, “Imidoalkanpercarboxylic acids” (Solvay Solexis S.p.A., priority 2002, dated 2011)

Tests used:
[1] = Dissolution time of crystalline PAP dispersed in standard detergent solution (HPLC); assay type: physicochemical; conditions: listed as crystals of PAP in beta form
Method: Successive samples of liquid phase, carefully filtered on filter of 0.45 micron, are drawn and the PAP concentration in solution is determined by HPLC.
Said times are determined by drawing some curves reporting in ordinate the PAP concentration dissolved in the aqueous phase (determined by HPLC) and in abscissae the sample drawing time, taking as 100% the PAP concentration asymptotically obtained at infinite time.
The previous test is repeated by dispersing 70 mg of anhydrous crystalline PAP (base 100%), respectively of crystals and microcrystals (sizes lower than 10 micron) of PAP in beta form, obtained as from Examples 2B and 2A respectively, in one liter of aqueous solution, prepared as above, stirred and thermostated at the temperature of 25° C.
Successive samples of liquid phase, carefully filtered on filter of 0.45 micron, are drawn, and the PAP concentration in solution is determined by HPLC.

[2] = Phase separation and sedimentation of 5% aqueous PAP dispersion at rest in graduated cylinder; assay type: physicochemical; conditions: 5% by weight PAP dispersion, rest at room temperature
Method: In a beaker immersed in a thermostatic bath an aqueous dispersion of alpha crystalline PAP in demineralized water at 5% by weight of PAP is prepared, by adding to 473.5 ml of demineralized water at the temperature of 50° C., kept under stirring with an anchor and a magnetic stirrer, 500 ppm of antifoam DB 100 and 1,000 ppm of surfactant Hostapur® SAS and 26.50 g of crystalline PAP in alpha form, of technical degree (titre: 94.3%) having average sizes higher than 100 micron. After 10 minutes of stirring at 50° C., the beaker is removed from the thermostatic bath and the aqueous suspension is transferred in a graduated cylinder. It is let rest at room temperature in the graduated cylinder.
An aqueous dispersion of crystalline PAP in demineralized water at 5% by weight of PAP is prepared, as described in Example 2A, by adding to 471.9 ml of demineralized water 500 ppm of antifoam DB 100 and 1000 ppm of surfactant Hostapur® SAS and 28.1 g of crystalline PAP in beta form of technical degree (titre: 89%), having average sizes higher than 100 micron, in particular 80% of the particles being comprised between 100 and 200 micron. After 10 minutes of stirring at 50° C., the beaker is removed and the suspension is transferred into a graduated cylinder, as in Example 2A. […] The separation of the supernatant aqueous phase increases after 2 hours to more than 70% of the total volume.

necessary time for the dissolution of 90% of the crystalline PAP initially dispersed ([1]; 70 mg PAP in 1 liter water 10° F. hardness + 1.70 g detergent IEC type B, 25° C.): 60 min
necessary time for the dissolution of 90% of the crystalline PAP initially dispersed ([1]; 100 mg PAP in 1 liter water 10° F. hardness + 1.70 g detergent IEC type B, 40° C.): 30 min
separation of supernatant aqueous phase ([2]; after 10 minutes): 60 % of the total volume
separation of supernatant aqueous phase ([2]; after 2 hours): more than 70 % of the total volume
Compound: O=C(CCCCCN1C(=O)c2ccccc2C1=O)OO [Example 2B, ε-phthalimido-peroxyhexanoic acid]
solid phase thickening / sedimentation on the cylinder bottom ([2]; 2A after two hours and 48 hours, 2B after 10 minutes): sedimentation of a precipitate on the bottom
